# Measurements: patent US20220178927A1, “BIOMARKERS FOR SELINEXOR” (Karyopharm Therapeutics Inc., priority 2019, published 2022)
# How the values were obtained:
# [1] = tested on: MM refractory to either 4 or 5 drugs (quad- and penta-refractory); experiment: phase 2 STORM study Part 1; assay type: in vivo, human; details: Selinexor 80 mg in combination with dexamethasone 20 mg, 2 dosing schedules; quad- and penta-refractory MM patients
# Method: Selinexor 80 mg in combination with dexamethasone 20 mg administered using 2 dosing schedules was studied in patients with MM refractory to either 4 or 5 drugs (quad- and penta-refractory) in Part 1 of the phase 2 STORM (Selinexor Treatment Of Refractory Myeloma) study. Median overall response rate (ORR) was 21% in this heterogeneous population. Based on these findings, the activity of selinexor 80 mg administered twice-weekly was examined in a more uniform population in the pivotal STORM Part 2 study.
# [2] = tested on: penta-exposed, triple-class refractory MM; experiment: pivotal STORM Part 2 study; assay type: in vivo
# Source text: Eligible patients had measurable MM by International Myeloma Working Group (IMWG) criteria (See, Durie B G, Harousseau J L, Miguel J S, et al. International uniform response criteria for multiple myeloma. Leukemia 2006;20:1467-73. Rajkumar S V, Harousseau J L, Durie B, et al. Consensus recommendations for the uniform reporting of clinical trials: report of the International Myeloma Workshop Consensus Panel. Blood 2011;117:4691-5); prior treatment with bortezomib, carfilzomib, lenalidomide, pomalidomide, daratumumab, glucocorticoids, and an alkylating agent; and had disease refractory to at least 1 IMiD (lenalidomide and pomalidomide), 1 PI (bortezomib or carfilzomib), daratumumab, glucocorticoids and to their last regimen. Refractory disease was defined as progression during or within 60 days after completion of therapy, or <25% response to therapy.19, 20 Eastern Cooperative Oncology Group performance status of 0-2, adequate hepatic function, renal function, and hematopoietic function were required. Systemic light chain amyloidosis, active central nervous system involvement, grade≥3 peripheral or grade≥2 painful neuropathy were exclusion criteria.
# Oral selinexor 80 mg in combination with dexamethasone 20 mg was administered on days 1 and 3, weekly, in 4-week cycles until disease progression, death or discontinuation. A dose modification protocol was used for adverse event (AE) management. All patients were required to receive ondansetron 8 mg (or equivalent) prior to the first dose of study drug and 2-3 times daily as needed. Other antiemetics (olanzapine, NK-1R antagonists) were permitted for patients intolerant to or with persistent nausea. Supportive measures were provided at the discretion of the investigator and may have included intravenous fluids, hematopoietic growth factors, transfusions, and/or appetite stimulants (olanzapine, megesterol acetate).
# The primary endpoint was Overall Response Rate (ORR) adjudicated by the appointed Independent Review Committee (IRC). Secondary endpoints included duration of response (DOR), clinical benefit rate (CBR), progression-free survival (PFS) and OS (Overall Survival). Disease-specific assessments were conducted at baseline, day 1 of each treatment cycle, and at the time of disease progression or suspected response. High-risk cytogenetics included del(17p), t(4;14), t(14;16), and gain(1q) chromosomal abnormalities by fluorescent in situ hybridization (FISH). Quality of life was assessed using the Functional Assessment of Cancer Therapy-Multiple Myeloma (FACT-MM) patient-reported outcome questionnaire. Safety and tolerability were assessed through history, physical exam, laboratory assessments and 12-lead electrocardiogram. Adverse events (AEs) were graded according to the NCI CTCAE v4.03.
# The sample size was based on assumptions for penta-exposed, triple-class-refractory MM using a minimal threshold for ORR of 10%. For the primary efficacy analysis, a sample size of 122 patients allowed for a one-sided test at α=0.025 to detect an ORR of ≥20% against the threshold ORR of 10% with 90% power. The modified intention-to-treat (mITT) population was used for the primary efficacy analysis, comprised of all enrolled patients who met all eligibility criteria or received a waiver from the Sponsor to enroll in the trial and received at least 1 dose of selinexor plus dexamethasone. The safety population included all patients who received at least 1 dose of study drug. The primary analysis used a 2-sided, exact 95% confidence interval, calculated for the ORR among the mITT population, with statistical significance declared if the lower bound of this interval was >10%. […] Summary statistics for continuous variables minimally included: n (number), mean, standard deviation (SD), minimum, median, and maximum. For categorical variables, frequencies and percentages are presented. For time-to-event variables, the Kaplan-Meier method was used for descriptive summaries.
# [3] = tested on: bortezomib-refractory disease; details: cited from earlier work
# refractory MM = details: expansion cohort (n=15) of the phase 1 monotherapy study; cited from earlier work
# quad-refractory myeloma = details: pivotal phase 2 study; cited from earlier work
# [4] = selinexor 80 mg + dexamethasone 20 mg twice weekly
# [5] = selinexor 80 mg + dexamethasone 20 mg twice weekly, % of mITT patients
# [6] = selinexor 80 mg + dexamethasone 20 mg twice weekly, % of patients
compound,measurement,setting,value
"O=C(/C=C\n1cnc(-c2cc(C(F)(F)F)cc(C(F)(F)F)c2)n1)NNc1cnccn1 [selinexor, Selinexor]",Overall response rate (ORR),[1],21%
same,discontinuation because of AEs (unrelated and related),[2]; most common reasons for discontinuation,32.5%
same,Overall response rate (ORR),"[2]; oral selinexor 80 mg + dexamethasone 20 mg, days 1 and 3 weekly, mITT population (122 patients), IRC adjudicated",26.2%
same,"CBR (≥minimal response), clinical benefit rate",[2]; [4],39.3%
same,OS (Overall Survival),[2]; [4],8.6 months
same,PFS (progression-free survival),[2]; [4],3.7 months
same,median DOR (duration of response),[2]; [4],4.4 months
same,partial responses,[2]; [5],19.7%
same,stringent complete responses,[2]; [5],1.6%
same,very good partial responses,[2]; [5],4.9%
same,Minimal response,[2]; [6],13.1%
same,progressive disease or disease not evaluable,[2]; [6],21.3%
same,stable disease,[2]; [6],39.3%
same,response of patients with relapse after CAR-T,"[2]; selinexor 80 mg + dexamethasone 20 mg twice weekly, both (2) patients with prior CAR-T therapy",partial response
same,Median time to partial response or better,"[2]; selinexor 80 mg + dexamethasone 20 mg twice weekly, range 1-14 weeks",4.1 weeks
same,median OS in patients who achieved a partial or minimal response or better,"[2]; selinexor 80 mg + dexamethasone 20 mg twice weekly, responder subgroup",15.6 months
same,efficacy across subgroups,[2]; subgroups including patients with high-risk cytogenetics (53% of the patients),consistent across subgroups
CC(C)C[C@H](NC(=O)[C@H](CCc1ccccc1)NC(=O)CN1CCOCC1)C(=O)N[C@@H](Cc1ccccc1)C(=O)N[C@@H](CC(C)C)C(=O)[C@@]1(C)CO1 [carfilzomib],ORR,[3],18.9%
daratumumab,ORR,refractory MM,36%
same,ORR,quad-refractory myeloma,21.2%
